In US20100221763A1, “Specific Acceptors for Transferases to Saccharides and Method for Obtaining and Using Same” (Health Research, Inc, priority 2005, published 2010):
Values joined by “and” are separate entries in the source; they are usually repeats but may differ in a detail not shown here. Equal entries are not always repeated. Marks after values point to notes of the source that are not given here.

Key:
[1] = target: T1, Rat recombinant α2,3(O)ST (Rattus norvegicus, UniProt Q11205); test: Sialyltransferase assay with cloned α2,3(O)ST; assay type: biochemical; conditions: Table I; acceptor 7.5 mM; [14C] sialylated product quantitated on Biogel P2 column
T1 construct: purchased Calbiochem
T1 sequence (Q11205 1-350): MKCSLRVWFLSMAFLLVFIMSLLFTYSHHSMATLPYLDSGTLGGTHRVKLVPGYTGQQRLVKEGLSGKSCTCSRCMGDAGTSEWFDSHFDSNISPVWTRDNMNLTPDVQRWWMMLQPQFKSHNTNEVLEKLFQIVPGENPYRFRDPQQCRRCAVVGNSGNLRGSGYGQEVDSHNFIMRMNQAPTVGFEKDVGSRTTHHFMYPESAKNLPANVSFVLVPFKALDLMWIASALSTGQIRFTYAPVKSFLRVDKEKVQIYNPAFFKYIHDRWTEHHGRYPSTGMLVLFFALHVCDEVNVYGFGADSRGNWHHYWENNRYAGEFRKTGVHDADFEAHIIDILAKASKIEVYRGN

[2] = test system: LNCaP α2,3(O)ST; test: Sialyltransferase assay with LNCaP cell extract; assay type: biochemical, human; conditions: for Sialyltransferase activity (%) LNCaP α2,3(O)ST: Table I, acceptor 7.5 mM, 100% = 30930 CPM (3-O-MeGalβ1,4GlcNAcβ1,6(Galβ1,3)GalNAcα-O-Bn); for LNCaPα2,3(O)ST %: Table III, compound 7.5 mM, 100% = 30100 CPM (3-O-MeGalβ1,4GlcNAcβ1,6(Galβ1,3)GalNAcα-O-Bn)
Description: The prostate carcinoma cell line, LNCaP, was grown in RPMI 1640 supplemented with 10% fetal bovine serum and antibiotics (penicillin, streptomycin and amphotericin B) under conditions recommended by American Type Culture Collection (Manassas, Va.). The cells were homogenized with 0.1M Tris-Maleate pH6.3 containing 2% Triton X-100 using a Dounce all glass hand-operated homogenizer. The homogenate was centrifuged at 16,000 g for 1 h at 4° C. Protein concentration in supernatant was measured using the BCA assay (Pierce Biotech, Inc., Rockford, Ill.), with BSA as the standard. The supernatant was adjusted to 5 mg protein/ml by adding the necessary amount of extraction buffer and then stored frozen at −20° C. until use. 10 μl aliquot of this extract was used in assays run in duplicate.
(§1) The incubation mixtures run in duplicate contained 0.1M NaCacodylate buffer pH6.0, the acceptor (typically at 7.5 mM, or as indicated in some experiments), CMP-[9 ^3H] NeuAc (typically 0.2 μci; 20 μci/nmol or as indicated in some experiments) and the enzyme in a total volume of 20 μl. The control incubation mixtures contained everything except the acceptor. Incubation was carried out for 2 h at 37° C. The enzymatic transfer of [9-^3H] NeuAc to a typical acceptor was linear for 2 h and less than 30% CMP-[9-^3H] NeuAc was utilized. Chromatography, using either Dowex-1-Formate, Sep-Pak C18 or Biogel P2, was applied to separate radioactive product from un-reacted [9-^3H] NeuAc as described below.
(§2) The radioactive products from neutral allyl and methyl glycosides as well as non-glycosides were measured by fractionation on Dowex-1-Formate (Bio-Rad: AG-1X8; 200-400 mesh; format form) as follows: The incubation mixture was diluted with 1.0 ml water and passed through AG-1-formate column (1.0 ml bed volume in a Pasteur pipet which had been washed with 5 ml of 2M Formic acid followed by 10 ml water). The column was washed twice with 1.0 ml water after the entry of the sample and then eluted with 3.0 ml of 0.1M NaCl. The radioactivity present in water and 0.1M NaCl eluates were measured separately using 3a70 scintillation cocktail (Research Products International, Mount Prospect, Ill.) and a Beckman LS6500 scintillation counter. The CPM values were corrected by subtracting the blank CPM. Any radioactivity present in the water eluate (as noticed in the case of some methylglycosides) was added to the corresponding CPM value of 0.1M NaCl eluate. The radioactive products from sulfated and/or sialylated methylglycosides were also measured by the above procedure, only the elution of the AG-1-Formate column was continued further with 3.0 ml of 0.2M NaCl for achieving a complete elution of the radioactive product, a correction being made as before by subtracting the corresponding blank values.
(§3) The radioactive products from benzylglycosides and monosialylated benzylglycosides were measured by hydrophobic chromatography on Sep-Pak C18 cartridge (Waters, Milford, Mass.) and eluting the product with 3.0 ml methanol (30). The radioactivity was determined by liquid scintillation as above.
(§4) For such work, a Biogel P2 column (Fine Mesh; 1.0×116.0 cm) was used with 0.1M pyridine acetate pH5.4 as the eluent at room temperature. The effluent fractions were monitored for radioactivity and the first peak containing radioactivity was collected, lyophilized to dryness, dissolved in 200 μl of water and stored frozen at −20° C. for thin layer chromatography (TLC) and other experimentation.

[3] = target: T2, Rat recombinant α2,6(N)ST (Rattus norvegicus, UniProt P13721); test: Sialyltransferase assay with cloned α2,6(N)ST; assay type: biochemical; conditions: for Sialyltransferase activity (%) Cloned α2,6(N)ST: Table I, acceptor 7.5 mM, 100% = 43500 CPM (Galβ1,4GlcNAcβ-O—Al); for Cloned Sialyltransferase Activities α2,6(N)ST %: Table III, compound 7.5 mM, 100% = 30440 CPM (Galβ1,4GlcNAcβ1,6(3-O-MeGalβ1,3)GalNAcα-O-Bn)
T2 construct: purchased Calbiochem
T2 sequence (P13721 1-403): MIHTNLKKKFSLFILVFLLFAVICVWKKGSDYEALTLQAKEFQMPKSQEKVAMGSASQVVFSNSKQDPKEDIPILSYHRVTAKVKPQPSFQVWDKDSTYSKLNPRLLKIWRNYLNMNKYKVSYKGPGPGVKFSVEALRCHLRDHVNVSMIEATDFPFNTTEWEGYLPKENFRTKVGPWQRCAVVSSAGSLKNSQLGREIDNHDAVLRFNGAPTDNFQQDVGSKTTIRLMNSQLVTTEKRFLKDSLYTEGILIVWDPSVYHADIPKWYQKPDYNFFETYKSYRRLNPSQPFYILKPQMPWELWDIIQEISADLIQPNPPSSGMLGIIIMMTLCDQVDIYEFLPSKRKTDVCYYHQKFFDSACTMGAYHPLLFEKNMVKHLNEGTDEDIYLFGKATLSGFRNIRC
Description: (§5) Rat recombinant α2,3(O)ST, α2,3(N)ST and α2,6(N)ST were purchased from Calbiochem and stored at either −20° C. or −70° C. as recommended by the supplier. […] 10 μl aliquots of the diluted enzymes were used in the assays run in duplicate.
as §1, §2, §3, §4

[4] = target: T1, Rat recombinant α2,3(O)ST; test: Sialyltransferase assay with cloned α2,3(O)ST; assay type: biochemical; conditions: for Sialyltransferase activity (%) Cloned α2,3(O)ST: Table I, acceptor 7.5 mM, 100% = 40560 CPM (3-O-MeGalβ1,4GlcNAcβ1,6(Galβ1,3)GalNAcα-O-Bn); for Cloned Sialyltransferase Activities α2,3(O) ST %: Table III, compound 7.5 mM, 100% = 39200 CPM (3-O-MeGalβ1,4GlcNAcβ1,6(Galβ1,3)GalNAcα-O-Bn)
Description: as §5, §1, §2, §3, §4

[5] = target: T3, Rat recombinant α2,3(N)ST (Rattus norvegicus, UniProt Q02734); test: Sialyltransferase assay with cloned α2,3(N)ST; assay type: biochemical; conditions: for Sialyltransferase activity (%) Cloned α2,3(N)ST: Table I, acceptor 7.5 mM, 100% = 29520 CPM (Galβ1,4GlcNAcβ-O—Al); for Cloned Sialyltransferase Activities α2,3(N) ST %: Table III, compound 7.5 mM, 100% = 38140 CPM (Galβ1,4GlcNAcβ1,6(3-O-MeGalβ1,3)GalNAcα-O-Bn)
T3 construct: purchased Calbiochem
T3 sequence (Q02734 29-374 limits assumed): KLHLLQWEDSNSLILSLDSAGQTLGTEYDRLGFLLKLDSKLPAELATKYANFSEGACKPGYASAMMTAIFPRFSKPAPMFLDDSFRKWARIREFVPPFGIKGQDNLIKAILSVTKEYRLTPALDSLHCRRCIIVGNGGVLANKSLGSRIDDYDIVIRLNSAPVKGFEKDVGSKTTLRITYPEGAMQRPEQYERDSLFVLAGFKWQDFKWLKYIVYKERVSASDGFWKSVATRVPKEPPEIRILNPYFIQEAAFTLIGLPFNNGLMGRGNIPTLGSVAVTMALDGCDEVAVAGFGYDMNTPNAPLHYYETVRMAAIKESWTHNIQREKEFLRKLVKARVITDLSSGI
Description: as §5, §1, §2, §3, §4

Row | SMILES | Sialyltransferase activity (%) LNCaP α2,3(O)ST [2] [%] | Sialyltransferase activity (%) Cloned α2,6(N)ST [3] | Sialyltransferase activity (%) Cloned α2,3(O)ST [4] [%] | Sialyltransferase activity (%) Cloned α2,3(N)ST [5] | LNCaPα2,3(O)ST % [2] [%] | Cloned Sialyltransferase Activities α2,6(N)ST % [3] | Cloned Sialyltransferase Activities α2,3(O) ST % [4] | Cloned Sialyltransferase Activities α2,3(N) ST % [5] | further results
1 | CC(=O)NC1C(OCC2OC(OCc3ccccc3)C(NC(C)=O)C(OC3OC(CO)C(O)C(O)C3O)C2O)OC(COS(=O)(=O)O)C(OC2OC(CO)C(O)C(O)C2O)C1O (centres unmarked) [Galβ1,4(6-O-Sulfo)GlcNAcβ1,6(Galβ1,3)GalNAcα-O-Bn] | – | – | – | – | – | – | – | – | Sialyltransferase activity (%) Cloned α2,3(O)ST [1]: 69.4% and 69.4^e %
2 | CO[C@H]1O[C@H](CO[C@@H]2O[C@H](COS(=O)(=O)O)[C@@H](O[C@@H]3O[C@H](CO)[C@H](O)[C@H](O)[C@H]3O)[C@H](O)[C@H]2NC(C)=O)[C@H](O)[C@H](O[C@@H]2O[C@H](CO)[C@H](O)[C@H](O)[C@H]2O)[C@H]1NC(C)=O [Galβ1,4(6-O-Sulfo)GlcNAcβ1,6(Galβ1,3)GalNAcα-O-Me] | 14.8 | 30.6^17% | 27.2 | 28.1% and 28.1^21% | – | – | – | – | Sialyltransferase activity (%) Cloned α2,3(N)ST ([5]; listed as Galβ1,4(6-O-Sulfo)GlcNAcβ1,6(Galβ1,3)GalNAcα-): 28.1%
3 | CO[C@@H]1[C@H](O)[C@@H](O)[C@H](O[C@H]2[C@H](O)[C@@H](NC(C)=O)[C@H](OC[C@H]3O[C@H](OCc4ccccc4)[C@H](NC(C)=O)[C@@H](O[C@@H]4O[C@H](CO)[C@H](O)[C@H](O)[C@H]4O)[C@H]3O)O[C@@H]2CO)O[C@@H]1CO [4-O-MeGalβ1,4GlcNAcβ1,6(Galβ1,3)GalNAcα-O-Bn] | – | – | – | – | 97.1 | 12.6% | 103.0% | 99.8% | α2,6(N)ST activity at varying acceptor concentration (FIG. 3A) ([3]; maximum concentration tested, 0.75 mM): almost inactive; α2,3(N)ST activity compared to Galβ1,4GlcNAcβ1,6(Galβ1,3)GalNAcα-O-Bn (FIG. 3B) ([5]; lowest concentration tested, 0.05 mM): four fold; α2,3(N)ST activity compared to Galβ1,4GlcNAcβ1,6(Galβ1,3)GalNAcα-O-Bn (FIG. 3B) ([5]; maximum concentration tested, 0.25 mM): two-fold
4 | CC(=O)N[C@H]1[C@H](OC[C@H]2O[C@H](OCc3ccccc3)[C@H](NC(C)=O)[C@@H](O[C@@H]3O[C@H](CO)[C@H](O)[C@H](F)[C@H]3O)[C@H]2O)O[C@H](CO)[C@@H](O[C@@H]2O[C@H](CO)[C@H](O)[C@H](O)[C@H]2O)[C@@H]1O [Galβ1,4GlcNAcβ1,6(3-FGalβ1,3)GalNAcα-O-Bn] | – | – | – | – | 1.7 | 77.7^19% | 77.2% | 96.9^25% | –
5 | C=CCO[C@@H]1O[C@H](CO)[C@@H](O[C@@H]2O[C@H](CO)[C@H](O)[C@H](O)[C@H]2O)[C@H](O)[C@H]1NC(C)=O [Galβ1,4GlcNAcβ-O—Al] | 0.5 | 100.0% and 100.0^b % | 4.7 | 100.0^a % | – | – | – | – | –
6 | CC(=O)N[C@H]1[C@H](OC[C@H]2O[C@H](OCc3ccccc3)[C@H](NC(C)=O)[C@@H](O[C@@H]3O[C@H](CO)[C@H](O)[C@H](O)[C@H]3O)[C@H]2O)O[C@H](CO)[C@@H](O[C@@H]2O[C@H](CO)[C@H](O)[C@H](F)[C@H]2O)[C@@H]1O [3-FGalβ1,4GlcNAcβ1,6(Galβ1,3)GalNAcα-O-Bn] | – | – | – | – | 91.5 | 11.3% | 102.9^12% | 7.2% | –
7 | CO[C@@H]1[C@H](O)[C@@H](O)[C@H](O[C@H]2[C@@H](O)[C@@H](CO[C@@H]3O[C@H](CO)[C@@H](O[C@@H]4O[C@H](CO)[C@H](O)[C@H](O)[C@H]4O)[C@H](O)[C@H]3NC(C)=O)O[C@H](OCc3ccccc3)[C@@H]2NC(C)=O)O[C@@H]1CO [Galβ1,4GlcNAcβ1,6(4-O-MeGalβ1,3)GalNAcα-O-Bn] | – | – | – | – | 112.0 | 101.3% | 101.3% | 100.6% | acceptor concentration at which maximum activity is reached (FIG. 3D) ([2]; LNCaPα2,3(O)ST): 0.15 mM
8 | CO[C@H]1[C@@H](O)[C@@H](CO)O[C@@H](O[C@H]2[C@@H](O)[C@@H](CO[C@@H]3O[C@H](CO)[C@@H](O[C@@H]4O[C@H](CO)[C@H](O)[C@H](O)[C@H]4O)[C@H](O)[C@H]3NC(C)=O)O[C@H](OCc3ccccc3)[C@@H]2NC(C)=O)[C@@H]1O [Galβ1,4GlcNAcβ1,6(3-O-MeGalβ1,3)GalNAcα-O-Bn] | 3.0 | 97.7% | 49.6 | 95.3% | 3.0 | 100.0^a % | 49.6% | 100.0^b % | –
